The source of these data is ChEMBL document CHEMBL1148045, “Dactyltronic acids from the sponge Dactylospongia elegans” (J Nat Prod, 1994).

Experiment [1] relates to A549. Put plainly: Cytotoxicity against human A549 cells. It is filed as functional, cell-based.
The test system of experiment [2] is P388. Kind of experiment: Cytotoxicity against mouse P388 cells. It is filed as functional, cell-based.

In brackets after ≈: the same amount, converted by molar mass.

The term IC50 denotes the concentration needed to halve the response being measured. Read a high IC50 as weaker potency. In the case of `C=C1CCC[C@H]2[C@](C)(CC(=O)C3=C(O)C(OC)OC3=O)[C@@H](C)CC[C@]12C` (some centres not stated) [DACTYLTRONIC ACID], the IC50 in experiment [1] and in experiment [2] was 10 µg/mL (≈ 27.6 µM) each time.
